The text below walks through data of paper PMC9098178, “SAR of Novel 3-Arylisoquinolinones: meta-Substitution on the Aryl Ring Dramatically Enhances Antiproliferative Activity through Binding to Microtubules” (Journal of Medicinal Chemistry, 2022).

One assay relates to HUVECs. The assay is described as follows: Cytoskeleton immunofluorescence. Format: cell-based, human. The following applies: 0.5, 1 μM, 24 h. An excerpt:
The disruption was characterized by shortened microtubules with outer blebbing filled with tubulin and thicker and brighter actin fibers (stress fibers). Many rounded and retracted cells were also observed in HUVECs treated with 4. […] Taken together, 4 induced morphological alterations in endothelial cells are possibly the reason behind the disruption of the preexisting tubes of HUVECs cultured on Matrigel. […] Throughout the next steps, all of the reagents were removed by washing, flicking, and gently dabbing the slide against a tissue paper. The cells were then washed with PBS containing calcium and magnesium (Sigma, Cat# D1283), fixed with 10% formalin solution (Sigma, Cat# HT5014) for 15 min, and permeabilized with 0.2% (v/v) Triton X-100 for 5 min. Next, the cells were exposed to 1 h incubation with blocking buffer made of 10% (v/v) normal goat serum (Vector Laboratories, Cat# S-1000), 1% (w/v) bovine serum albumin (Sigma, Cat# A9418), and 0.3 M glycine in PBS-T (0.05% Tween-20 in PBS). The cells were then incubated with rabbit α-tubulin primary antibody (1:1000 in the blocking buffer, Abcam, Cat# ab52866) for 2 h at RT after three times washing with PBS-T, each for 5 min. […] Finally, the cytoskeleton was visualized at 63x, oil-based magnification using fluorescence, inverted microscope (Leica DMI6000B, Leica Microsystems). […]

For a further assay, the system named is purified bovine tubulin. As to the kind of experiment: Cell-free tubulin polymerization assay. Format: biochemical. The text has this: Experimentally, the direct interaction of 4 with tubulin was investigated in a cell-free system using a tubulin polymerization assay. […] In control samples, α- and β-tubulin subunits were able to heterodimerize and assemble into microtubules in a time-dependent manner as indicated by increasing absorbance values over time. […] This indicates the incidence of fast polymerization associated with the formation of a denser microtubule mass. […] It is worth mentioning that microtubule dynamics can be potently altered by microtubule-stabilizing or -destabilizing compounds at doses 10- to 100-fold lower than those required for increasing or decreasing the microtubule polymer mass.[31]
The cell-free tubulin polymerization experiment was performed using the Tubulin Polymerization Assay Kit according to the manufacturer’s instructions (Millipore, Cat# 17-10194). The light absorbed by microtubules, which were formed upon tubulin polymerization, is directly proportional to the polymer mass. […] Immediately, the plate was placed in a 37 °C-prewarmed plate reader (BMG LABTECH FLUOstar Omega, Germany) and the absorbance was measured at 1 min intervals for 60 min at a wavelength of 350 nm. The delta absorbance (ΔA) was calculated by subtracting the absorbance values of zero time from those of the subsequent time points and then plotted versus time.

The next assay concerns HCT116. As to the kind of experiment: SRB antiproliferative assay, HCT116. In kind it is cell-based, human. The conditions noted are these: Homo sapiens, HCT-116, 96 h treatment, mean ± SEM, read-out: IC50 HCT116. How it is done: (§1) In light of this substantial change in activity between the meta and para compounds, a more comprehensive analysis of the antiproliferative activity was performed for the meta-/para-3-arylisoquinolinone pairs 2 and 3, 4, and 5, as well as 6. A panel of breast (MDA-MB-231), liver (HepG2, SNU423), lung (A549), and colon (HCT116) cancer cell lines were treated with the five 3-arylisoquinolinone analogs for 96 h followed by the SRB assay. The dose–response curves (including those for MCF-7) are presented in Figure S22, and their relevant IC50 values are listed in Table 1. […] The differential activity between meta- and para-3-arylisoquinolinones was reproduced in the National Cancer Institute (NCI) one-dose screen using a panel of 59 cancer cell lines (Figure S23).
(§2) All cell lines used in the study were human-derived and purchased from ATCC (Manassas, USA). Breast adenocarcinoma MCF-7 and MDA-MB-231 cell lines were cultured in DMEM. Hepatocellular carcinoma HepG2 and SNU423 cell lines were grown in MEME combined with 1% (v/v) nonessential amino acids and RPMI supplemented with 2 mM glutamine, respectively. Lung adenocarcinoma A549 and colorectal carcinoma HCT116 cells were grown in RPMI (+2 mM glutamine). All previous media were further supplemented with 10% heat-inactivated fetal bovine serum. The immortalized, normal liver THLE-3 cells were grown in BEGM (Lonza, Cat# CC-3170) onto precoated vessels according to ATCC’s instructions. Human umbilical vein endothelial cells (HUVECs) were cultured in EGM-2 (Lonza, Cat# CC-3162). All of the cells were maintained at 37 °C and 5% CO2 in a humidified incubator.
(§3) Screening of the antiproliferative activity of 3-arylisoquinolinones was performed using the SRB assay as previously described.[56] Exponentially growing HepG2, SNU423, MDA-MB-231, MCF-7, A549, HCT116, THLE-3, and HUVECs were seeded in 96-well plates at densities of 3000, 2000, 1500, 2500, 1000, 1000, 4000, and 4000 cells/well, respectively. These densities were experimentally selected so that the DMSO-treated cells (control) were approximately 80–90% confluent at the assay’s endpoint, and their optical density (OD) values fell within the assay’s linear range. After overnight incubation, the cells were treated with a range of concentrations of the respective compounds for 96 h, 24 h followed by 72 h compound-free incubation or 24 h (for HUVECs only). After treatment, cell monolayers were fixed with 10% (w/v) trichloroacetic acid for 1 h at 4 °C, washed, and dried. Then, the cells were exposed to 0.4% (w/v) SRB dye (prepared in 1% (v/v) acetic acid; Botium, Cat# 80100) for 15 min followed by several 1% acetic acid washing and then drying. Finally, the cellular protein-bound SRB was thoroughly dissolved in 10 mM Tris base, and the OD values were read at 510 nm using a plate reader (μQuant Microplate Spectrophotometer, Biotek, U.K.) coupled with Gen5 software (BioTek, U.K.). Compound-induced changes in cell growth were inferred from changes in OD values. Cell growth was calculated using the following formula: cell growth (%) = (ODtest/ODcontrol) × 100.
(The SRB assay estimates cell density from bound dye.)

Another assay deals with MDA-MB-231. The assay is described as follows: SRB antiproliferative assay, MDA-MB-231. The following applies: Homo sapiens, MDA-MB-231, 96 h treatment, mean ± SEM, read-out: IC50 MDA-MB-231. Format: cell-based, human. The procedure: as §1, §2, §3
For a further assay, the system named is A549. As to the kind of experiment: SRB antiproliferative assay, A549. In kind it is cell-based, human. The conditions noted are these: Homo sapiens, A549, 96 h treatment, mean ± SEM, read-out: IC50 A549. How it is done:
as §1, §2, §3

Molecules are shown by their SMILES. pIC50: −log10 of the molar value. A value given as a limit tells only on which side of the number the result lay.

Consider `O=c1[nH]c(-c2cccc(F)c2)cc2cc(F)ccc12` [compound 4, 6-Fluoro-3-(3-fluorophenyl)isoquinolin-1(2H)-one], for which the “effect on cytoskeleton network (actin and microtubules)” value with HUVECs was “marked disruption in the cytoskeleton network”. The “suppression of tubulin polymerization at highest concentration” value in the assay with purified bovine tubulin (20 μM, nocodazole 10 μM) is reported as “as effective in suppressing tubulin polymerization as the positive control (nocodazole)”. For the same molecule, the “effect on tubulin polymerization” value with purified bovine tubulin (5, 10, 20 μM, 37 °C, absorbance 350 nm) is on record as “hindered tubulin polymerization in a concentration-dependent manner”.

The pIC50 is −log10 of the IC50, conventionally taken in molar units. As for `O=c1[nH]c(-c2ccc(F)cc2)cc2cc(F)ccc12` [compound 5, 6-Fluoro-3-(4-fluorophenyl)isoquinolin-1(2H)-one], the pIC50 in the assay on HCT116, in the assay with MDA-MB-231 and in the assay on A549 was below 4.30 throughout.
